In patent US11013236B2, “Pesticidal Flavobacterium strain and bioactive compositions metabolites and uses” (Marrone Bio Innovations, Inc., priority 2012, dated 2021):

How the values were obtained:
M. hapla = assay: In vitro 96-well plate bioassay of purified peaks of fraction 3; assay type: in vivo, Meloidogyne hapla; conditions: 24 hour at 25° C.
Description: (§1) Once the purification of fraction 3 is complete and all of the desired peaks/compounds are collected as described above, each peak is tested in an in vitro 96-well plastic cell-culture plate extract bioassay in order to identify the peak/s that contain the desired active metabolite/s.
(§2) 15-20 nematodes in a […] water solution are exposed to […] of a 20 mg/ml peak concentrate (1.13 mg/ml total exposure) for a 24 hour period at 25° C. Once the incubation period is completed, results are recorded based on a visual grading of immotility of the J2s in each well treated with H492 purified peaks of H1 to H39, plus H29-A derived from fraction 3, each treatment is tested in four replicates. Three controls are included in each trial; one positive control (1% avid). and two negative controls (DMSO and water). Trial 1 (T1) was carried out using the method described above with M. hapla, trial 2 and 3 (T2 and T3) were carried out using the latter method with M. incognita (FIG. 22).

M. incognita [1] = assay: as above; assay type: in vivo, Meloidogyne incognita; conditions: 24 hour at 25° C.
Description: as §1, §2

[2] = test system: nematode juveniles (J2) of M. incognita (Monsanto strain); assay: Dose response % immotility for synthesized polyketide, 6-well plate immobility bioassay; assay type: in vivo, Meloidogyne incognita; conditions: tested 0.14-1.69 mg/mL in DMSO; 24 h exposure, 24 h on water agar; FIG. 23
Description: The synthetic polyketide (MW 176) was tested at several doses (concentrations tested were 0.14, 0.28, 0.42, 0.56, 0.84, 1.13, 1.69 mg/mL of polyketide in DMSO) in the 6-well plate immobility bioassay to find the optimal dose of this compound needed in order to detect nematicidal activity. In this particular assay the nematode juveniles (J2) of M. incognita (Monsanto strain) were first exposed to the tested samples in 96-well plate: 50 μl of water containing approximately 300 J2 were mixed with 3 μl of polyketide sample or controls (avid (2%) as positive control or DMSO and water as negative controls, respectively. After 24 h incubation, 20 μl of J2 suspension from each well was transferred into the wells of 6-well plates filled with water agar (3 mL of 1% agar per each well). The plates were left open for 10-15 min to allow the solutions to dry out. Afterwards, circles were drawn around the J2 suspension and initial numbers of J2 inside the circles were counted under the stereomicroscope. The plates were incubated for another 24 h and the numbers of J2 that remained immotile (i.e. were still present inside the circles) were counted using stereomicroscope. The % of nematode immotility was expressed as: [(number of immotile nematodes after 24 h incubation/initial number of J2)*100%].

M. incognita [3] = assay: Greenhouse cone test of polyketide 1, tomato (cv. UC82) as host; assay type: in vivo, Meloidogyne incognita; conditions: compared to water control
Description: The nematicidal activity of polyketide 1 (MW 176 compound) against root-knot nematodes was further assessed in greenhouse in cone tests using M. incognita and tomato (cv. UC82) as a host. The tomato seeds were germinated in vermiculate and 3-week-old seedlings were transferred to the cones containing mixture of sand and top soil (1:1). Two weeks after transplanting, tomato plants were treated with the samples. […] Four different concentrations (100, 10, 1, & 0.1 μg/mL) of the polyketide prepared in 4% methanol (MeOH) were dosed as 10 mL of soil drench into each pot. Each treatment was tested in 5 replicates. Following the drench each pot was inoculated with 1000 nematode eggs suspended in 1 mL of water. The dosing of the product was repeated after two weeks. Three weeks later, the inoculation test was terminated and the following parameters were scored: number of galls/root, gall index and fresh top weight.

[4] = test system: Avidovorax avenae subsp. citrulli; assay: Antimicrobial agar disc assay; assay type: cell-based
Description: (§3) The pure 1-(4-hydroxyphenyl) pent-1-en-3-one (1) “polyketide MW 176” was tested against various microbial pathogens using agar disc assay.

Bacillus cereus = assay: Antimicrobial agar disc assay; assay type: cell-based
Description: as §3

Erwinia amylovora = assay: Antimicrobial agar disc assay; assay type: cell-based
Description: as §3

Xanthomonas campestris = assay: Antimicrobial agar disc assay; assay type: cell-based
Description: as §3

nematodes (J2's) = assay: SAR motility bioassay of synthetic analogues; assay type: in vivo; conditions: 3 μL at 20 mg/ml into 50 μl with approximately 300 J2's, 24 hours, then 24 hour recovery on 1.5% water agar; average of 6 repetitions
Description: To quickly understand which part of the 1-(4-hydroxyphenyl) pent-1-en-3-one (1) molecule (polyketide) plays a crucial role on the nematicidal activity, a series of structural analogues were synthesized and evaluated using motility test. This bioassay serves to distinguish the differences in efficacy by measuring the recovery and the mobility of the nematodes after being exposed to any given compound with 6 repetitions per treatment. This bioassay involves the following procedure: 3 μL (at 20 mg/ml) of the sample are dispensed into 50 μl of approximately 300 J2's in a 96-well plastic cell-culture plate. After 24 hours, 100-150 of the treated J2's were transferred into 6-well plates that contain 1.5% water agar. After drying of the test sample on the agar, the initial drop was marked and initial counts of the J2's were carried out. After another 24 hour recovery period, the immobilization of the juveniles were measured by counting the number of J2's that moved from the initial circle and an average of the 6 repetitions were calculated to get the percent immobilization of each sample.

Row | SMILES | Average % immobility (nematodes (J2's)) | also measured
1 | CCC(=O)/C=C/c1ccc(O)cc1 [Compound 1, 1-(4-hydroxyphenyl) pent-1-en-3-one] |  | Potency in in vitro assay (immotility of J2s) (M. hapla): confirmed; Potency in in vitro assay (immotility of J2s) (M. incognita [1]): confirmed; optimal range required for good nematicidal activity (% immotility) [2]: ≥ 0.5 mg/mL; gall index (M. incognita [3]; 0.1 mg/ml, 10 mL soil drench, 1st test): significantly reduced; gall index and galls per root (M. incognita [3]; 0.001 & 0.01 mg/ml, 10 mL soil drench, 1st test): significantly reduced; gall index (M. incognita [3]; all tested dilutions, 2nd test): significantly reduced; antimicrobial activity [4]: moderate activity; antimicrobial activity (Bacillus cereus): moderate activity; antimicrobial activity (Erwinia amylovora): potent activity; antimicrobial activity (Xanthomonas campestris): moderate activity
2 | CC(=O)/C=C/c1ccccc1 [SAR-1, (E)-4-phenylbut-3-en-2-one] | 99% | 
3 | O=C(/C=C/c1ccccc1)c1ccccc1 [SAR-2, Benzalacetophenone] | 4% | 
4 | CC(=O)/C=C/c1ccccc1O [SAR-3, (E)-4-(2-hydroxyphenyl)but-3-en-2-one] | 95% | 
5 | CC(=O)/C=C/C=C/c1ccccc1 [SAR-4, (3E,5E)-6-phenylhexa-3,5-dien-2-one] | 97% | 
6 | O=C(/C=C/C=C/c1ccccc1)c1ccccc1 [SAR-5, (2E,4E)-1,5-diphenylpenta-2,4-dien-1-one] | 98% | 
7 | CCC(=O)/C=C/c1ccccc1O [SAR-6, (E)-1-(2-hydroxyphenyl)pent-1-en-3-one] | 98% | 
8 | O=C(/C=C/c1ccccc1O)c1ccccc1 [SAR-7, (E)-3-(2-hydroxyphenyl)-1-phenylprop-2-en-1-one] | 99% | 
9 | CC(C)CC(=O)/C=C/c1ccccc1O [SAR-8, (E)-1-(2-hydroxyphenyl)-5-methylhex-1-en-3-one] | 100% | 
10 | O=C(/C=C/c1ccc(O)cc1)c1ccccc1 [SAR-9, (E)-3-(4-hydroxyphenyl)-1-phenylprop-2-en-1-one] | 100% | 
11 | CC(C)CC(=O)/C=C/c1ccc(O)cc1 [SAR-10, (E)-1-(4-hydroxyphenyl)-5-methylhex-1-en-3-one] | 96% | 
12 | CC(=O)/C=C/c1cccc(O)c1 [SAR-11, (E)-4-(3-hydroxyphenyl)but-3-en-2-one] | 99% | 
13 | CC(=O)/C=C/c1ccccc1O [SAR-12, (E)-4-(2-hydroxyphenyl)but-3-en-2-one] | 99% | 
14 | O=Cc1ccccc1OCC(=O)c1ccccc1 [SAR-13, 2-(2′-phenyl-2-oxoethoxy) benzaldehyde] | 74% | 
15 | CC(=O)/C(C)=C/c1ccccc1O [SAR-14, (E)-4-(2-hydroxyphenyl)-3-methylbut-3-en-2-one] | 97% | 
16 | CC/C=C/C(=O)c1ccccc1 [SAR-15, (E)-1-phenylpent-2-en-1-one] | 20% | 
17 | CC/C=C\CC/C=C/C(C)=O [SAR-16, (3E,7Z)-deca-3,7-dien-2-one] | 94% | 
18 | O=C(/C=C/c1cccc(O)c1)/C=C/c1cccc(O)c1 [SAR-18, (1E,4E)-1,5-bis(3-hydroxyphenyl) penta-1,4-dien-3-one] | 23% | 
19 | O=C(/C=C/Cc1ccccc1)c1ccccc1 [SAR-19, (E)-1,4-diphenylbut-2-en-1-one] | 64% | 
20 | O=C(/C=C/Cc1ccccc1)c1ccc(O)cc1 [SAR-20, (E)-1-(4-hydroxyphenyl)-4-phenylbut-2-en-1-one] | 28% | 
21 | C/C(=C\c1cccc(O)c1)C(=O)/C=C/c1cccc(O)c1 [SAR-21, (1E,4E)-1,5-bis(3-hydroxyphenyl)-2-methylpenta-1,4-dien-3-one] | 12% | 
22 | O=C(/C=C/c1cccc(O)c1)c1ccccc1 [SAR-22, (E)-3-(3-hydroxyphenyl)-1-phenylprop-2-en-1-one] | 70% | 

Row | SMILES | Average % immobility (nematodes (J2's)) | also measured
23 | CCC(=O)/C=C/c1ccccc1 [SAR-23, (E)-1-phenylpent-1-en-3-one] | 80% | 
24 | CC(=O)/C(C)=C/c1ccc(O)cc1 [SAR-24, (E)-4-(4-hydroxyphenyl)-3-methylbut-3-en-2-one] | 80% | 
25 | CC(C)CC(=O)/C=C/c1ccccc1 [SAR-25, (E)-5-methyl-1-phenylhex-1-en-3-one] | 79% | 
26 | O=C(CBr)c1ccccc1 [SAR-26, 2-bromo-1-phenylethanone] | 50% | 
27 | CC(C)CC(=O)/C=C/c1cccc(O)c1 [SAR-27, (E)-1-(3-hydroxyphenyl)-5-methylhex-1-en-3-one] | 78% | 
28 | CC(=O)/C=C/c1ccc(O)cc1 [SAR-28, (E)-4-(4-hydroxyphenyl)but-3-en-2-one] | 78% | 
29 | O=Cc1cccc(O)c1 [SAR-29, 3-hydroxybenzaldehyde] | 70% | 
30 | O=Cc1ccc(O)cc1 [SAR-30, 4-hydroxybenzaldehyde] | 58% | 
31 | O=Cc1ccccc1O [SAR-31, 2-hydroxybenzaldehyde] | 58% | 
32 | O=Cc1ccccc1 [SAR-32, Benzaldehyde] | 65% | 
33 | CCCCCCCCC1CCC(=O)O1 (stereo not shown) [SAR-33, γ-dodecalactone] | 63% | 
34 | CCCCC1CCC(=O)O1 (stereo not shown) [SAR-34, γ-octalactone] | 21% | 
35 | CCCCCCC(C)=O [SAR-35, 2-octanone] | 33% | 
36 | CCCCCC(C)=O [SAR-36, 2-heptanone] | 21% | 
37 | CCCCCCCCCC(C)=O [SAR-37, 2-undecanone] | 67% | 
38 | CC/C=C\CCC=O [SAR-38, cis-4-heptenal] | 21% | 
39 | CC(=O)CC(C)C [SAR-39, 4-methyl-2-pentanone] | 54% | 
40 | CC(C)C=O [SAR-40, iso-butyraldehyde] | 79% | 
41 | CC(=O)CC(C)(C)O [SAR-41, 4-hydroxy-4-methylpentanone] | 21% | 
42 | COc1ccccc1C=O [SAR-42, o-anisaldehyde] | 8% | 
43 | CCC(C)=O [SAR-43, 2-butanone] | 21% | 
